Measurements: patent publication US20130137760A1, “GAMBOGIC AMINE, A SELECTIVE TRKA AGONIST WITH NEUROPROTECTIVE ACTIVITY” (EMORY UNIVERSITY, priority 2007, published 2013)

Assays:
hippocampal neurons = experiment: OGD (Oxygen and Glucose Deprivation) neuronal cell death in hippocampal neurons; type: cell-based; details: in vitro
Procedure: NGF overexpression decreases infarct volume and neuronal apoptosis in transgenic mice or intraventricular injected mice (Guegan et al., 1998; Luk et al., 2004). NGF also potently protects PC12 cells from apoptosis in an OGD (Oxygen-glucose-deprivation) model (Tabakman et al., 2005). To explore whether test compounds might exert any protective effect on hippocampal neurons in OGD, the primary preparations can be pre-treated with NGF or test compounds 30 min before OGD stimulation. […] Titration assays can show whether the compounds protect neurons in a dose-dependent manner. Therefore, the assay can identify compounds which selectively protect TrkA expression cells and primary neurons from apoptosis.
NGF overexpression decreases infarct volume and neuronal apoptosis in transgenic mice or intraventricular injected mice (Guegan et al., 1998; Luk et al., 2004). NGF also potently protects PC12 cells from apoptosis in an OGD (Oxygen-glucose-deprivation) model (Tabakman et al., 2005). To explore whether gambogic amines exert any protective effect on hippocampal neurons in OGD, one can pre-treat the primary preparations with NGF or various compounds 30 min before OGD stimulation. […] Titration assays can reveal whether or not the compounds protect neurons in a dose-dependent manner. […]

[1] = system: T17 cells (TrkA stably transfected SN56 cells); experiment: Cell-based apoptotic assay: protection of TrkA-expressing T17 cells from staurosporine-initiated apoptosis, MR(DEVD)2 caspase-3 dye; set-up: species or system murine; details: 0.5 μM pre-incubation, then 1 μM STS for 9 h; compared with NGF
Text: In order to identify small molecules that mimic NGF and activate TrkA, we developed a cell-based apoptotic assay using a cell permeable fluorescent dye MR([…])2, which turns red upon caspase-3 cleavage in apoptotic cells. We utilized a murine cell line T17, which was derived from basal forebrain SN56 cells. T17 cells are TrkA stably transfected SN56 cells. The candidates selectively protecting T17 but not SN56 cells from the first round screen can then be subjected to neurite outgrowth assay for the secondary screen. The positive compounds can be analyzed for TrkA tyrosine phosphorylation, Akt and MAP kinases signaling cascade activation.
T17 cells can be cultured in 96-well plates and preincubated with 10 μM compounds for 30 min, followed by 1 μM staurosporine (STS) treatment for 9 h. MR(DEVD)2 can be introduced to the cells 1 h before examination under fluorescent microscope. The apoptotic cells are red, while live cells have no signal. […] Using the caspase-3-activated fluorescent dye as a visual assay, one can screen the gambogic amine compounds.
To compare the apoptosis inhibitory activity of various compounds, one can pre-incubate gambogic amines derivatives (0.5 μM) with T17 and SN56 cells, followed by 1 μM STS for 9 h. Quantitative analysis of the apoptosis inhibitory activities can determine whether the compounds protect SN56 cells from apoptosis.
T17 cells can be seeded in a 96-well plate at 10,000 cells/well in 100 μl complete medium. Cells can be incubated overnight, followed by 30 min pretreatment with 10 μM compounds in DMSO (10 mM stock concentration from The Spectrum Collection library). The cells can then be treated with 1 μM Staurosporine for 9 h. One h before the termination of the experiment, 10 μM MR(DEVD)2, a cell permeable caspase-3-activated fluorescent dye can be introduced. Cells can be fixed with 4% paraformaldehyde for 15 min. Cells can then be washed with PBS and incubated with 1 μg/ml of Hoechst 33342 for 10 min. Cover slides can then be washed with PBS, mounted, and examined using a fluorescence microscope.

hippocampus = experiment: Kainic acid-elicited neuronal cell death in mouse brain (TUNEL, hippocampus); type: in vivo, C57BL/6 mice; details: mouse brain
Text: Kainic acid (KA) is a potent agonist for the AMPA receptor. Peripheral injections of KA result in recurrent seizures and the subsequent degeneration of select populations of neurons in the hippocampus (Nadler et al., 1980; Schauwecker and Steward, 1997; Sperk et al., 1983). It has been shown that the activation of caspase-3 is a necessary component of KA-induced cell death (Faherty et al., 1999). To explore whether test compounds can block the neurotoxicity initiated by KA, the compounds can be subcutaneously injected (for example, at a concentration of 2 mg/kg) into C57BL/6 mice, followed by 25 mg/kg KA. In 5 days, the mice can be perfused and the brains cut to a thickness of 5 μm and mounted on slides.
Kainic acid (KA) is a potent agonist for the AMPA receptor. Peripheral injections of KA result in recurrent seizures and the subsequent degeneration of select populations of neurons in the hippocampus (Nadler et al., 1980; Schauwecker and Steward, 1997; Sperk et al., 1983). It has been shown that the activation of caspase-3 is a necessary component of KA-induced cell death (Faherty et al., 1999). To explore whether gambogic amines can block the neurotoxicity initiated by KA, one can subcutaneously inject 2 mg/kg of a gambogic amine into C57BL/6 mice, followed by 25 mg/kg KA. In 5 days, the mice can be perfused and the brains were cut to a thickness of 5 μm and mounted on slides. TUNEL staining can reveal whether KA provokes enormous apoptosis in the hippocampus, and whether this effect is substantially diminished by the gambogic amine.
Male C57BL/6 mice aged of 60 days can be injected subcutaneously (s.c.) with a single dose of either 30% ethanol in saline or KA (25 mg/kg) (Sigma, Mo.) or the gambogic amine (2 mg/kg) followed by KA. Animals can be continually monitored for 2 h for the onset of seizure activity. At 5 days following treatment, animals can be anesthetized and perfused with 4% paraformaldehyde in 0.1 M phosphate buffered saline. Brains can be removed, post-fixed overnight and processed for paraffin embedding. […]

## CC(C)=CCC[C@]1(C)C=Cc2c(O)c3c(c(CC=C(C)C)c2O1)O[C@]12C(=C[C@@H]4CC1C(C)(C)O[C@@]2(C/C=C(/C)C(N)=O)C4=O)C3=O [gambogic amide]
Hippocampal neurons
  protection of hippocampal neurons from OGD neuronal cell death: potent neurotrophic effects
[1]
  apoptosis inhibitory activity in T17 cells: strongly suppress apoptosis in T17 cells with protective activities even stronger than NGF
hippocampus
  block of kainic acid-elicited neuronal cell death in mouse brain: strongly block
